Measured values: PubChem BioAssay AID2060506 (Molecular Pharmacology Branch, DTP, NCI, 2025)
Values belong to the molecule of their own block, whether it stands above or below them.

Tested on: 598228-144-R-J1-PDC complex spheroid viability
Assay: Anticancer human tumor 598228-144-R-J1-PDC patient-derived serous endometrial adenocarcinoma cell line growth inhibition [GQUAD]
Settings: for IC50: curve of first compound; for viability, T/C: stronger effect = lower value
From the text: DNA G-quadruplex Stabilizer Agents in Combinations in Complex Spheroids
A high-throughput screen of multi-cell type tumor spheroids was designed to identify active combinations of DNA G-quadruplex stabilizer agents and targeted small molecules. Complex spheroids include a stromal component modeled by human endothelial cells (HUVEC) and fibroblasts modeled by human mesenchymal stem cells (MSCs). The concentration ranges selected for each drug and investigational agent were based upon clinically achievable concentrations if the clinical Cmax of the agent was known.
Compounds. The drugs and investigational agents: pidnarulex (CX-5461; NSC782164), APTO-253 (NSC789042), BRACO-19 (NSC847499), peposertib (NSC802822), ceralasertib (NSC780249), elimusertib (NSC800525), camonsertib (NSC841442), AZD-1390 (NSC803789), olaparib (NSC753686), talazoparib (NSC767125), ART-558 (NSC835418), sotorasib (NSC818433), MRTX-1133 (NSC836407), SN-38 (NSC673596), topotecan (NSC609699), etoposide (NSC141540), doxorubicin (NSC123127), gemcitabine (NSC613327), 5-fluorouracil (NSC19893), paclitaxel (NSC125973), vemurafenib (NSC761431), panobinostat (NSC761190), R-306465 (JNJ-16241199; NSC773264), adavosertib (NSC754352), TP-3654 (NSC805149), carboplatin (NSC241240), KSQ-4279 (NSC840948), and staurosporine (NSC755774) were obtained from the National Cancer Institute (NCI) Developmental Therapeutics Program Chemical Repository (34). The FDA-approved anticancer drug set is available from the NCI Developmental Therapeutics Program. […] The stock solutions were prepared in dimethyl sulfoxide (DMSO, Sigma-Aldrich, St. Louis, MO, cat. D2650) at 800-fold the tested concentration and stored at -70 degrees C prior to their use. All drugs and investigational agents were tested over a range starting from a high concentration at or near the clinical Cmax and decreasing in half-log increments. If the clinical Cmax for an agent had not been determined, the highest concentration tested was 10 microM.
2.3 Cell Culture. All cells were maintained in an incubator at 37 degrees C and 5% CO2 with 95% humidity. The PDC lines were cultured according to standard operating procedures established by the NCI PDMR. All PDCs were thawed and cultured in Matrigel-coated flasks prepared with a working solution of 1X Ham's F-12 nutrient mix, without supplementation (Invitrogen, cat. 11765054), 100 U/mL penicillin-streptomycin (Invitrogen, cat. 15140122), and 2.5% Matrigel (Corning Inc., cat. 354248) for the first three passages. The 857933-349-R-J2-PDC line was cultured in 6C/Colon 1B media, which includes advanced DMEM/F-12 (Thermo Fisher Scientific, cat. 12634028), 10 mM HEPES (Thermo Fisher Scientific, cat. 15630080), 1X GlutaMAX supplement (Thermo Fisher Scientific, cat. 35050061), 0.1 mg/mL primocin (InvivoGen, cat. ant-pm-2), 10% defined fetal bovine serum, heat inactivated (HyClone Laboratories Inc., cat. SH30070.03HI), 50% L-WRN conditioned media (ATCC, cat. CRL-3276), 1.25 mM N-Acetyl-L-cysteine (Sigma-Aldrich, cat. A9165), 10 mM nicotinamide (Sigma-Aldrich, cat. N0636), 1X B-27 supplement (Thermo Fisher Scientific, cat. 17504044), 1X N-2 supplement (Thermo Fisher Scientific, cat. 17502048), 10 microM Y-27632 dihydrochloride (Tocris Bioscience, cat. 1254), and 50 ng/mL human EGF recombinant protein (Thermo Fisher Scientific, cat. PHG0311). The 485176-168-R4-J1-PDC line was cultured in Panc media, which includes all 6C/Colon 1B media components plus 100 ng/mL human FGF-10 (Thermo Fisher Scientific, cat. 100-26), 500 nM SB-431542 (Selleckchem, cat. S1067), and gastrin (Tocris, cat. 3006).
[…]

[1] = second compound 0.0316 µM, first compound 0.000999 µM
[2] = second compound 0.0316 µM, first compound 0.00316 µM
[3] = second compound 0.0316 µM, first compound 0.00999 µM
[4] = second compound 0.0316 µM, first compound 0.0316 µM
[5] = second compound 0.0316 µM, first compound 0.0999 µM
[6] = second compound 0.0316 µM, first compound 0.316 µM
[7] = second compound 0.1 µM, first compound 0.000999 µM
[8] = second compound 0.1 µM, first compound 0.00316 µM
[9] = second compound 0.1 µM, first compound 0.00999 µM
[10] = second compound 0.1 µM, first compound 0.0316 µM
[11] = second compound 0.1 µM, first compound 0.0999 µM
[12] = second compound 0.1 µM, first compound 0.316 µM
[13] = second compound 0.316 µM, first compound 0.000999 µM
[14] = second compound 0.316 µM, first compound 0.00316 µM
[15] = second compound 0.316 µM, first compound 0.00999 µM
[16] = second compound 0.316 µM, first compound 0.0316 µM
[17] = second compound 0.316 µM, first compound 0.0999 µM
[18] = second compound 0.316 µM, first compound 0.316 µM
[19] = second compound 1 µM, first compound 0.000999 µM
[20] = second compound 1 µM, first compound 0.00316 µM
[21] = second compound 1 µM, first compound 0.00999 µM
[22] = second compound 1 µM, first compound 0.0316 µM
[23] = second compound 1 µM, first compound 0.0999 µM
[24] = second compound 1 µM, first compound 0.316 µM
[25] = second compound 3.16 µM, first compound 0.000999 µM
[26] = second compound 3.16 µM, first compound 0.00316 µM
[27] = second compound 3.16 µM, first compound 0.00999 µM
[28] = second compound 3.16 µM, first compound 0.0316 µM
[29] = second compound 3.16 µM, first compound 0.0999 µM
[30] = second compound 3.16 µM, first compound 0.316 µM
[31] = second compound 10 µM, first compound 0.000999 µM
[32] = second compound 10 µM, first compound 0.00316 µM
[33] = second compound 10 µM, first compound 0.00999 µM
[34] = second compound 10 µM, first compound 0.0316 µM
[35] = second compound 10 µM, first compound 0.0999 µM
[36] = second compound 10 µM, first compound 0.316 µM
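Further: spheroids exposed to the agents for one week before reading.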
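Wherever viability, T/C is given: percent of vehicle DMSO control viability so 100% = untreated growth.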

SMILES: Cn1ncnc1[C@H]1c2n[nH]c(=O)c3cc(F)cc(c23)N[C@@H]1c1ccc(F)cc1 + CN(C)c1ccc(Nc2c3ccc(NC(=O)CCN4CCCC4)cc3nc3cc(NC(=O)CCN4CCCC4)ccc23)cc1
IC50 (second compound 0.0316 µM): > 316 nM | IC50 (second compound 0.1 µM): > 316 nM | IC50 (second compound 0.316 µM): > 316 nM | IC50 (second compound 1 µM): > 316 nM | IC50 (second compound 3.16 µM): > 316 nM | IC50 (second compound 10 µM): > 316 nM | viability, T/C [1]: 118% | viability, T/C [2]: 93.2% | viability, T/C [3]: 103% | viability, T/C [4]: 86.3% | viability, T/C [5]: 80.8% | viability, T/C [6]: 76.8% | viability, T/C [7]: 104% | viability, T/C [8]: 97.5% | viability, T/C [9]: 100% | viability, T/C [10]: 80.8% | viability, T/C [11]: 87.8% | viability, T/C [12]: 76.2% | viability, T/C [13]: 106% | viability, T/C [14]: 108% | viability, T/C [15]: 100% | viability, T/C [16]: 106% | viability, T/C [17]: 87.6% | viability, T/C [18]: 62% | viability, T/C [19]: 101% | viability, T/C [20]: 97.3% | viability, T/C [21]: 114% | viability, T/C [22]: 110% | viability, T/C [23]: 95.7% | viability, T/C [24]: 81.2% | viability, T/C [25]: 112% | viability, T/C [26]: 112% | viability, T/C [27]: 91.8% | viability, T/C [28]: 80.7% | viability, T/C [29]: 93.1% | viability, T/C [30]: 69.8% | viability, T/C [31]: 91.7% | viability, T/C [32]: 86.3% | viability, T/C [33]: 96.2% | viability, T/C [34]: 68.7% | viability, T/C [35]: 73.2% | viability, T/C [36]: 53.7%

IC50 (second compound 0.0316 µM): > 316 nM | IC50 (second compound 0.1 µM): > 316 nM | IC50 (second compound 0.316 µM): > 316 nM | IC50 (second compound 1 µM): > 316 nM | IC50 (second compound 3.16 µM): > 316 nM | IC50 (second compound 10 µM): < 0.999 nM
SMILES: CC[C@@]1(O)C(=O)OCc2c1cc1n(c2=O)Cc2cc3c(CN(C)C)c(O)ccc3nc2-1 + Cc1cnc(CNC(=O)c2c(=O)c3ccc(N4CCCN(C)CC4)nc3n3c2sc2ccccc23)cn1
viability, T/C [1]: 83.8% | viability, T/C [2]: 107% | viability, T/C [3]: 93.2% | viability, T/C [4]: 81.6% | viability, T/C [5]: 54.8% | viability, T/C [6]: 53.9% | viability, T/C [7]: 85.1% | viability, T/C [8]: 80.2% | viability, T/C [9]: 65.5% | viability, T/C [10]: 68.7% | viability, T/C [11]: 64.2% | viability, T/C [12]: 63.6% | viability, T/C [13]: 69.2% | viability, T/C [14]: 67.9% | viability, T/C [15]: 68.8% | viability, T/C [16]: 78.2% | viability, T/C [17]: 73.1% | viability, T/C [18]: 76.6% | viability, T/C [19]: 71% | viability, T/C [20]: 72.9% | viability, T/C [21]: 71.1% | viability, T/C [22]: 68.3% | viability, T/C [23]: 75.7% | viability, T/C [24]: 58% | viability, T/C [25]: 67.4% | viability, T/C [26]: 58.6% | viability, T/C [27]: 58.7% | viability, T/C [28]: 52% | viability, T/C [29]: 65.6% | viability, T/C [30]: 59.4% | viability, T/C [31]: 42.5% | viability, T/C [32]: 41.2% | viability, T/C [33]: 47.7% | viability, T/C [34]: 52.3% | viability, T/C [35]: 36% | viability, T/C [36]: 40.9%
